In patent US20080039500A1, “Cerebral Infarction Suppressant” (priority 2004, published 2008):

Key:
[1] = test system: cerebral infarction; assay: Example 1: concomitant use of histidine and H3-receptor blocker, size of infarction after 2 h middle cerebral artery occlusion (TTC staining); format: in vivo, rat
From the text: These rats were anesthetized with a gas mixture of 2% halothane, 49% oxygen and 49% laughing gas, and kept under spontaneous breathing. Subsequently, a median incision was made in the neck of the rat placed on its back, and the right common carotid artery was exposed. […] The tip of the nylon thread was placed 18 mm from the bifurcation. After suture of the incision of the skin, the rats were allowed to recover from anesthesia. During surgery, an electronic thermometer was inserted into the temporal muscle, and the body temperature was maintained at 37.0±0.1° C. with a lamp. […] Five minutes before reperfusion of blood flow, the rats were anesthetized again. […] Histidine was first dissolved in physiological saline adjusted to pH 4.0 with hydrochloric acid, and then the pH was resumed to 6.0 with sodium hydroxide. Further, 5 mg/kg of thioperamide was intraperitoneally injected to each thioperamide administration group. After recovery from anesthesia, the rats were allowed to access food and water freely. Twenty-four hours after recovery of blood flow, sodium pentobarbital was intraperitoneally administered to the rats for anesthesia. Subsequently, the brain was perfused with physiological saline, and the rat was decapitated. The brain was quickly dissected, and rinsed in physiological saline. The brain was sliced coronally between the optic chiasm and the caucal edge of the mammillary body at a thickness of 2 mm. […] As a result, triphenyltetrazolium chloride was reduced due to the action of dehydrogenase present in viable cells, and the tissue was stained in dark red. On the other hand, the dead tissue in the infarcted area was not stained. These brain slices were preserved in phosphate-buffered formalin overnight. Then, an investigator who was unaware of histidine administration measured the size of infarction using computer-aided planimetry.

[2] = test system: pyramidal neurons in the hippocampal CA-1 region; details: administration prior to transient forebrain ischemia, rat; cited from earlier work
[3] = test system: cerebral infarction; assay: Example 2: concomitant use of histidine and HMT inhibitor, size of infarction after middle cerebral artery occlusion
Protocol: Twenty-five male Wistar rats weighing about 300 g were divided into 4 groups consisting of histidine 1000 mg/kg administration group, histidine 200 mg/kg+metoprine 10 mg/kg administration group, histidine 500 mg/kg+metoprine 10 mg/kg administration group, and histidine 1000 mg/kg+metoprine 10 mg/kg administration group.
The root of the right middle cerebral artery of these rats was occluded and blood flow was recovered as shown in the Example 1. Then, 200 mg/kg, 500 mg/kg or 1000 mg/kg of histidine was intraperitoneally administered to the rats, and 10 mg/kg of metoprine was further administered to the metoprine administration groups, as shown in the Example 1.
The samples were prepared by treating each rat as shown in the Example 1 and the size of infarction was measured. The obtained size of cerebral infarction was subjected to analysis of variance and the Bonferroni test.

[4] = test system: neuronal death; details: cited from earlier work
[5] = test system: liver function; details: patients who received the agent; cited from earlier work
[6] = histidine 200 mg/kg i.p. alone, single dose after reperfusion, 24 h
[7] = histidine 500 mg/kg i.p. alone after reperfusion, 24 h
[8] = histidine 1000 mg/kg i.p. alone after reperfusion, 24 h
[9] = Example 2, histidine 1000 mg/kg i.p. alone after reperfusion, 24 h

Structure (SMILES): N[C@@H](Cc1c[nH]cn1)C(=O)O [Histidine, histidine]
- size of cerebral infarction, Striatum ([1]; histidine 200 mg/kg i.p. alone, single dose after reperfusion (2 h MCA occlusion), 24 h after recovery of blood flow): 35.3 ± 21.6 mm^3
- size of cerebral infarction, Cerebral cortex [1, 6]: 106.3 ± 63.0 mm^3
- size of cerebral infarction, Total [1, 6]: 141.6 ± 83.1 mm^3
- size of cerebral infarction, Cerebral cortex [1, 7]: 86.0 ± 49.9 mm^3
- size of cerebral infarction, Striatum [1, 7]: 30.5 ± 23.3 mm^3
- size of cerebral infarction, Total [1, 7]: 116.5 ± 69.7 mm^3
- size of cerebral infarction, Cerebral cortex [1, 8]: 114.2 ± 33.9 mm^3
- size of cerebral infarction, Striatum [1, 8]: 47.8 ± 16.3 mm^3
- size of cerebral infarction, Total [1, 8]: 162.0 ± 45.8 mm^3
- suppressive effects on cerebral infarction ([1]; histidine alone in a single dose after ischemia (200, 500, 1000 mg/kg)): not found
- programmed death of neurons after transient ischemia [2]: depressed
- suppressive effects on cerebral infarction ([3]; 1000 mg/kg of histidine in a single dose after ischemia, without metoprine): not found
- size of cerebral infarction, Cerebral cortex [3, 9]: 87.8 ± 42.5 mm^3
- size of cerebral infarction, Striatum [3, 9]: 57.2 ± 20.2 mm^3
- size of cerebral infarction, Total [3, 9]: 145.0 ± 59.2 mm^3
- neuronal death 7 days after ischemia caused by apoptosis ([4]; histidine 4 times: shortly, 6, 24 and 48 hours after 15 minutes of transient ischemia, rats): depressed

Structure (SMILES): CC1=NN(c2ccccc2)C(=O)C1 [edaravone]
- patients with abnormal values in laboratory tests on the liver function [5]: 21.4%

Structure (SMILES): COc1ccc(CN(CCN(C)C)c2ccccn2)cc1 [mepyramine]
- alleviation of nerve cell death by histidine in presence of histamine receptor blocker ([4]; co-administered with histidine, ranitidine used concomitantly with mepyramine): slightly suppressed
